Assay results from US20250066350A1, “AROMATIC HETEROCYCLE-SUBSTITUTED COMPOUNDS, AND PREPARATION METHOD THEREFOR AND USE THEREOF” (Innovstone Therapeutics Limited, priority 2021, published 2025).

target: ATR enzyme (Homo sapiens (Human), UniProt Q13535); assay: Inhibitory effect on ATR enzyme (HTRF, phospho-P53); assay type: biochemical; settings: 90 minutes incubation, 150 nM ATP final; read-out: IC50 for ATR enzyme inhibition
Method: Test Example 1. Inhibitory Effect of Compounds of the Present Invention on ATR Enzyme
The following method is used to determine the inhibitory effect of the compounds of the present invention on the ATR enzyme. The experimental method is briefly described as follows:
1. ATR enzyme (Eurofins Pharma Discovery Services, 14-953M)
2. GST-tagged P53 protein (Eurofins Pharma Discovery Services, 14-952M)
15 nM ATR enzyme, 80 nM P53 protein, 300 nM ATP (the final concentrations were 40 nM and 150 nM, respectively), and small molecule compounds of various concentrations (the final concentrations (nM) of the ten points were 2985.0, 895.5, 298.5, 110.56, 33.17, 11.06, 4.09, 1.23, 0.41 and 0.15, respectively, and the final dimethyl sulfoxide concentration was 0.498%) were mixed and incubated at room temperature for 90 minutes. 10 μL of 2× cocktail buffer was added to the mixture of ATR, compound and substrate in the assay plate (anti-phospho-p53-Eu and anti-GST-d2 were diluted in the assay buffer). The resulting mixture was centrifuged at 1000 rpm for 30 seconds, and incubated overnight at 4° C. in the dark (a total of 20 μl in each well). The FRET signal (endpoint) was measured in the Envision instrument (HTRF 665/612 ratio was calculated at 665 nm emission and 612 nm emission). Data were processed using GraphPad software.
The inhibitory activity of the compounds of the present invention on the ATR enzyme can be determined by the test described above, and the measured IC50 values are shown in Table 1.

Chain of ATR enzyme (Q13535 whole entry): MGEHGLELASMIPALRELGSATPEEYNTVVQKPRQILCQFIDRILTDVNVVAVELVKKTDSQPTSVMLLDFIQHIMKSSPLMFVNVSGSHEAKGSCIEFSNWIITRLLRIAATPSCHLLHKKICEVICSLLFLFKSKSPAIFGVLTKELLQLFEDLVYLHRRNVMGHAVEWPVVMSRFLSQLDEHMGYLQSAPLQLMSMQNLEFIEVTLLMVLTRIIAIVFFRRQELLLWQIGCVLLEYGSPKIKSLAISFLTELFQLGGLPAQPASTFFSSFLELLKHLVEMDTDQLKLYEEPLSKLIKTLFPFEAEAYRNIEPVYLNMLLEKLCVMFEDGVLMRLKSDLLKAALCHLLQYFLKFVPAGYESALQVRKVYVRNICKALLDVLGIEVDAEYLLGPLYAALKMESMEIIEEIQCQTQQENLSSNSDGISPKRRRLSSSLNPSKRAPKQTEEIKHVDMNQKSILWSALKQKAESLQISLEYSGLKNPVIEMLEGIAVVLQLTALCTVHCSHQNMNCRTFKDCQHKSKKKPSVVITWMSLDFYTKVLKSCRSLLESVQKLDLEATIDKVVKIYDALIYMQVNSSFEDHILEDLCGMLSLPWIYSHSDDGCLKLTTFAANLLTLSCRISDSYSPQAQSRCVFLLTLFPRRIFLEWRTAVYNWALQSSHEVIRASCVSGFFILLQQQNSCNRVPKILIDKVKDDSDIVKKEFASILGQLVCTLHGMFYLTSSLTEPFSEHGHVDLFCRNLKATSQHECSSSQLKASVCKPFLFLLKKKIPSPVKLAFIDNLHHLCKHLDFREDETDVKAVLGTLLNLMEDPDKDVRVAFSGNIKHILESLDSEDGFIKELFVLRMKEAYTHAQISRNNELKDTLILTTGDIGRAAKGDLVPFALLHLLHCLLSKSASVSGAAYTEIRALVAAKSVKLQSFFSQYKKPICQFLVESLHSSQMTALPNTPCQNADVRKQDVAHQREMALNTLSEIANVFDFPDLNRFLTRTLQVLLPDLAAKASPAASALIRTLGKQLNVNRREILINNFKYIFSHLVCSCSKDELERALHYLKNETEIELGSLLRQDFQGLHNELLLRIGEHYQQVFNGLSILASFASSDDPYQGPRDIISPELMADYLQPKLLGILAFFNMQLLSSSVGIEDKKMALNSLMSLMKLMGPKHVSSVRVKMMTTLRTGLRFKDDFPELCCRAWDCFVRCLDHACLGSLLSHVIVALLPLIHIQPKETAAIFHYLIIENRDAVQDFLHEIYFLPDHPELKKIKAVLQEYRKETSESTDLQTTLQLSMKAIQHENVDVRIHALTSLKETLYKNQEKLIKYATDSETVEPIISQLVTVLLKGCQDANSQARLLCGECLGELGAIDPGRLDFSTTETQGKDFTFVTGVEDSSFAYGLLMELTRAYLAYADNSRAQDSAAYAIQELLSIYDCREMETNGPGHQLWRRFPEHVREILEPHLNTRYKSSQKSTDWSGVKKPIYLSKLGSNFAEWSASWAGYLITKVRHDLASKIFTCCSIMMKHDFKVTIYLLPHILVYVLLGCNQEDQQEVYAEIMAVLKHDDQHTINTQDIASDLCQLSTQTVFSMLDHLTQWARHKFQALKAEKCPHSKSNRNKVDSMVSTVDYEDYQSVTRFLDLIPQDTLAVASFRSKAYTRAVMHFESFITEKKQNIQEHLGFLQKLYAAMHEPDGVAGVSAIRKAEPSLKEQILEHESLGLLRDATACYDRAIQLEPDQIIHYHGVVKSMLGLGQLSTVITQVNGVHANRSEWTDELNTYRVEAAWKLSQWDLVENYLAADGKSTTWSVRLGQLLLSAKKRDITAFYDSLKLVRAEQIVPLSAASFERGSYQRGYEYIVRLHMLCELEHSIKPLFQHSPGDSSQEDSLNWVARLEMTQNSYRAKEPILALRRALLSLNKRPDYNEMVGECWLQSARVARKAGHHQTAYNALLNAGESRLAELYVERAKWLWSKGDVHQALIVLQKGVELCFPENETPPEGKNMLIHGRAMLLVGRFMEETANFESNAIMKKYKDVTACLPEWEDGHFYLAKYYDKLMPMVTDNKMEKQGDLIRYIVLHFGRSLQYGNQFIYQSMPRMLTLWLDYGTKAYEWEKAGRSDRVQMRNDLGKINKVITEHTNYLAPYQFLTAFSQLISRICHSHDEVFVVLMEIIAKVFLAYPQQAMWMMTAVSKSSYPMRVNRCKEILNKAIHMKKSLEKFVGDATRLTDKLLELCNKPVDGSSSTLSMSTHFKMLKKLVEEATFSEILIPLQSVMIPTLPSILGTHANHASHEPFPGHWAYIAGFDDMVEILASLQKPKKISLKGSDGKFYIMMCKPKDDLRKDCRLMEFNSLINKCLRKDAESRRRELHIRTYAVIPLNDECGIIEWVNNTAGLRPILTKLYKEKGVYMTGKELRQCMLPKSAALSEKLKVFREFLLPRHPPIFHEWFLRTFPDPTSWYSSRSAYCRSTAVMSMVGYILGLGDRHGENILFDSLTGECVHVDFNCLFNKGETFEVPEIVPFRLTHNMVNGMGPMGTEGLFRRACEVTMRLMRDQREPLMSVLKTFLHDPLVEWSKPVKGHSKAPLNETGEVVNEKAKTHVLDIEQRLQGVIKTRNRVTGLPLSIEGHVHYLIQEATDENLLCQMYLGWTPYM
Chain of ATR enzyme (Q8WXE1 whole entry partner): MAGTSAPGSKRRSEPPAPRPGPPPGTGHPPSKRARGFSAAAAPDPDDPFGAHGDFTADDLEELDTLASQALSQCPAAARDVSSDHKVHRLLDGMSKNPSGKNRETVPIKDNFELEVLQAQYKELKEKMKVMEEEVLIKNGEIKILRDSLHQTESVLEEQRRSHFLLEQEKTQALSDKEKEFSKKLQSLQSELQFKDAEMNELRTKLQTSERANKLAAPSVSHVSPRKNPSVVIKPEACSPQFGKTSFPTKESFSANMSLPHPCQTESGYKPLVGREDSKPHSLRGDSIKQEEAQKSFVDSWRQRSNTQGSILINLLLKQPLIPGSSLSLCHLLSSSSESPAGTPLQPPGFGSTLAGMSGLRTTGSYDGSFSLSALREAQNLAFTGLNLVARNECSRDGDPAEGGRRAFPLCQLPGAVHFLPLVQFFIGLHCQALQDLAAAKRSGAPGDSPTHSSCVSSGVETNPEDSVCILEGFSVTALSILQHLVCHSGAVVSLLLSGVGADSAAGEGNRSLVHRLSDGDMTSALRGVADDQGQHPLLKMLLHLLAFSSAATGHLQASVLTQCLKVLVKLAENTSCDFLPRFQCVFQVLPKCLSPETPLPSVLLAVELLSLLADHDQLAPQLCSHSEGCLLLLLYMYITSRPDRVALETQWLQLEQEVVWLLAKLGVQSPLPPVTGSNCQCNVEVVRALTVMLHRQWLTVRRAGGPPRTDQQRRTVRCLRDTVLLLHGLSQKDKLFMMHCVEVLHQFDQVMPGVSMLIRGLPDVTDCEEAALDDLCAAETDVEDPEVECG

Row | IC50 [nM] | SMILES
1 | 10 to 50 | C[C@@H]1COCCN1c1cc(C#CC2(O)CCN(c3cccc(F)c3)CC2)c2cnn(-c3ccn[nH]3)c2n1 [Compound 12, (R)-1-(3-fluorophenyl)-4-((6-(3-methylmorpholinyl)-1-(1H-pyrazolyl-5-yl)-1H-pyrazolyl[3,4-b]pyridin-4-yl)ethynyl)piperidin-4-ol]
2 | 10 to 50 | C[C@@H]1COCCN1c1cc(C#CC2(O)CCC3(CCOCC3)CC2)c2cnn(-c3ccn[nH]3)c2n1 [Compound 14, (R)-9-((6-(3-methylmorpholinyl)-1-(1H-pyrazol-5-yl)-1H-pyrazole[3,4-b]pyridin-4-yl)ethynyl)-3-oxaspiro[5.5]undecan-9-ol]
3 | 10 to 50 | C#Cc1cc(N2CCOC[C@H]2C)nc2c1cnn2-c1cc[nH]n1 [Example 17]
4 | 10 to 50 | C[C@@H]1COCCN1c1cc(C#CCN(C)C)c2cnn(-c3cc[nH]n3)c2n1 [Example 18, (R)-N, N-Dimethyl-3-(6-(3-methylmorpholine)-1-(1H-pyrazol-3-yl)-1H-pyrazoline[3,4-b]pyridin-4-yl)propyl-2-yn-1-amine]
5 | ≤ 10 | C[C@@H]1COCCN1c1cc(-c2ccc(N3C(=O)CCCC3CO)cc2)c2cnn(-c3cc[nH]n3)c2n1 (some centres unmarked) [Example 60]
6 | 10 to 50 | C[C@@H]1COCCN1c1cc(C#Cc2ccnc3[nH]ccc23)c2cnn(-c3cc[nH]n3)c2n1 [Example 77]
7 | ≤ 10 | C[C@@H]1COCCN1c1cc(C#Cc2c[nH]cn2)c2cnn(-c3cc[nH]n3)c2n1 [Example 78]
8 | 10 to 50 | CC(=O)N1CCC(C#Cc2cc(N3CCOC[C@H]3C)nc3c2cnn3-c2cc[nH]n2)C1 (some centres unmarked) [Example 80]
9 | ≤ 10 | C[C@@H]1COCCN1c1cc(C#CC2(O)COC2)c2cnn(-c3cc[nH]n3)c2n1 [Example 84]
10 | 10 to 50 | C[C@@H]1COCCN1c1cc(C#CC(=O)N2CC(O)C2)c2cnn(-c3cc[nH]n3)c2n1 [Example 86]
11 | ≤ 10 | C[C@@H]1COCCN1c1cc(-c2ccc(NC(=O)CCO)cc2)c2cnn(-c3cc[nH]n3)c2n1 [Example 152]
12 | ≤ 10 | C[C@@H]1COCCN1c1cc(-c2ccc(NC(=O)C3CNC3)cc2)c2cnn(-c3cc[nH]n3)c2n1 [Example 156]
13 | ≤ 10 | Cc1cc(-c2cc(N3CCOC[C@H]3C)nc3c2cnn3-c2ccn[nH]2)cc(C)c1N(C)C(=O)c1ccncc1 [Example 184]
14 | ≤ 10 | C[C@@H]1COCCN1c1cc(-c2ccc(N(C)C(=O)N3CCCC3)cc2F)c2cnn(-c3cc[nH]n3)c2n1 [Example 192]
15 | ≤ 10 | C#CC1CC=C(c2cc(N3CCOC[C@H]3C)nc3c2cnn3-c2cc[nH]n2)CC1 (some centres unmarked) [Example 201]
16 | ≤ 10 | C#CC1CCC(c2cc(N3CCOC[C@H]3C)nc3c2cnn3-c2ccn[nH]2)CC1 (stereo partly drawn) [Example 202, (R)-4-(4-(4-ethynylcyclohexyl)-1-(1H-pyrazol-5-yl)-1H-pyrazolo[3,4-b]pyridin-6-yl)-3-methylmorpholine]
17 | ≤ 10 | C[C@@H]1COCCN1c1cc(-c2ccc(N3CC4(CCN(Cc5ccccc5)C4)CC3=O)cc2)c2cnn(-c3cc[nH]n3)c2n1 (some centres unmarked) [Example 203]
18 | 10 to 50 | C[C@@H]1COCCN1c1cc(C#CCN2CC3(CNC3)C2)c2cnn(-c3cc[nH]n3)c2n1 [Example 205]

Row | IC50 [nM] | SMILES
19 | ≤ 10 | C[C@@H]1COCCN1c1cc(C#CC2CCCOC2)c2cnn(-c3ccn[nH]3)c2n1 (some centres unmarked) [Example 210]
20 | ≤ 10 | C[C@@H]1COCCN1c1cc(-c2ccc(N3CCCC3=O)cc2)c2cnn(-c3cc[nH]n3)c2n1 [Example 212]
21 | 10 to 50 | CC(=O)Nc1ccccc1-c1cc(N2CCOC[C@H]2C)nc2c1cnn2-c1cc[nH]n1 [Example 220]
22 | ≤ 10 | C[C@@H]1COCCN1c1cc(-c2ccc(N(C)C(=O)N3CCCC3)cc2)c2cnn(-c3cc[nH]n3)c2n1 [Example 223]
23 | ≤ 10 | C[C@@H]1COCCN1c1cc(-c2ccc3c(c2)CCCN3C(=O)c2cccnc2)c2cnn(-c3cc[nH]n3)c2n1 [Example 225]
24 | 10 to 50 | C[C@@H]1COCCN1c1cc(-c2ccc(N(C)C(=O)N3CCCC3)nc2)c2cnn(-c3cc[nH]n3)c2n1 [Example 227]
25 | ≤ 10 | C[C@@H]1COCCN1c1cc(-c2ccc(NC(=O)N3CCCCC3)cc2)c2cnn(-c3cc[nH]n3)c2n1 [Example 229]
26 | 10 to 50 | C[C@@H]1COCCN1c1cc(-c2ccc(N(C)C(=O)N3CCCCC3)cc2)c2cnn(-c3cc[nH]n3)c2n1 [Example 230]
27 | 10 to 50 | C[C@@H]1COCCN1c1cc(-c2ccc(NC(=O)C34CC5CC(CC(C5)C3)C4)cc2)c2cnn(-c3cc[nH]n3)c2n1 [Example 232]
28 | 10 to 50 | COc1cc(-c2cc(N3CCOC[C@H]3C)nc3c2cnn3-c2cc[nH]n2)ncc1NC(=O)N1CCCC1 [Example 247]
29 | 10 to 50 | COc1cc(NC(=O)N2CCCC2)ncc1-c1cc(N2CCOC[C@H]2C)nc2c1cnn2-c1cc[nH]n1 [Example 248]
30 | ≤ 10 | C[C@@H]1COCCN1c1cc(-c2ccc(NC(=O)N3CCCC3)cn2)c2cnn(-c3cc[nH]n3)c2n1 [Example 249]
31 | 10 to 50 | C[C@@H]1COCCN1c1cc(-c2cc(NC(=O)C3CC3)[nH]n2)c2cnn(-c3cc[nH]n3)c2n1 [Example 253]
32 | 10 to 50 | C[C@@H]1COCCN1c1cc(N2CC(c3ccnn3C)C2)c2cnn(-c3cc[nH]n3)c2n1 [Example 266]
33 | 10 to 50 | C[C@@H]1COCCN1c1cc(N2CC(c3ccn(C)n3)C2)c2cnn(-c3cc[nH]n3)c2n1 [Example 267]
34 | 10 to 50 | C[C@@H]1COCCN1c1cc(C2CN(C(=O)NC3CC3)C2)c2cnn(-c3cc[nH]n3)c2n1 [Example 268]
35 | ≤ 10 | C[C@@H]1COCCN1c1cc(C2CN(c3ccnn3C)C2)c2cnn(-c3cc[nH]n3)c2n1 [Example 269]
36 | ≤ 10 | C#CC1CCC(O)(c2cc(N3CCOC[C@H]3C)nc3c2cnn3-c2cc[nH]n2)C1 (some centres unmarked) [Example 270]

Row | SMILES | IC50 [nM]
37 | C[C@@H]1COCCN1c1cc(-c2ccc(NC(=O)NC3CC4CCC(C3)N4)cc2)c2cnn(-c3cc[nH]n3)c2n1 (some centres unmarked) [Example 231] | ≤ 10

system: SNU-601 cells; assay: SNU-601 cell proliferation experiment (CellTiter-Glo, intracellular ATP); assay type: cell-based; settings: 120 h; SNU-601 human gastric cancer cells, 5 days; read-out: IC50 for inhibition of SNU-601 cell proliferation
Method: The following method is used to evaluate the inhibitory effect of the compounds of the present disclosure on SNU-601 cell proliferation according to the IC50 values by means of detecting the intracellular ATP content. The experimental method is briefly described as follows:
1. SNU-601, human gastric cancer tumor cells (Co-bioer, CBP60507)
SNU-601 cells were cultured in RPMI 1640 medium containing 10% FBS and passaged 2 to 3 times a week at a split ratio of 1:5 or 1:10. During passage, the cells were trypsinized and transferred to a centrifuge tube. The tube was centrifuged at 1000 rpm for 5 minutes, the supernatant medium was discarded, and fresh medium was added to resuspend the cells. 195 μL of cell suspension at a density of 5.128×10^3 cells/mL was added to a 96-well cell culture plate, and 200 μL of complete medium only was added to the periphery wells of the 96-well plate. The culture plate was incubated in an incubator for 24 hours (37° C., 5% CO2).
The sample to be tested was diluted to 2 mM with DMSO, diluted 3-fold serially to 10 concentrations. Blank and control wells were set. 10 μL of the solution containing the compound to be tested prepared in gradient concentrations was added to 50 μL of fresh medium. 5 μL of the above culture medium solution containing the compound was added to the culture plate. The culture plate was incubated in an incubator for 5 days (37° C., 5% CO2). 50 μL of CellTiter-Glo reagent was added to each well of the 96-well cell culture plate after discarding 100 μL/well, and the plate was shaken at room temperature in the dark for 10 min. The chemiluminescent signal values were read in PHERAstar, and data were processed using GraphPad software.
The inhibitory effect of the compounds of the present invention on SNU-601 cell proliferation can be determined by the test described above, and the measured IC50 values are shown in Table 3.

Row | IC50 [nM] | SMILES
38 | 10 to 100 | C[C@@H]1COCCN1c1cc(-c2ccc(N3CC4CCC(O4)C3=O)cc2)c2cnn(-c3cc[nH]n3)c2n1 (some centres unmarked) [Example 65]
39 | 10 to 100 | CCC(CC)C(=O)Nc1ccc(-c2cc(N3CCOC[C@H]3C)nc3c2cnn3-c2cc[nH]n2)cc1 [Example 151]
40 | 10 to 100 | C[C@@H]1COCCN1c1cc(-c2ccc(N3CCCCCC3=O)cc2)c2cnn(-c3cc[nH]n3)c2n1 [Example 153]
41 | 10 to 100 | C[C@@H]1COCCN1c1cc(-c2ccc(NC(=O)C3CCOCC3)cc2)c2cnn(-c3cc[nH]n3)c2n1 [Example 155]
42 | 10 to 100 | C[C@@H]1COCCN1c1cc(-c2ccc(NC(=O)c3ccccc3)cc2)c2cnn(-c3cc[nH]n3)c2n1 [Example 163]
43 | 10 to 100 | C[C@@H]1COCCN1c1cc(-c2ccc(NC(=O)c3ccncn3)cc2)c2cnn(-c3cc[nH]n3)c2n1 [Example 165]
44 | 10 to 100 | C[C@@H]1COCCN1c1cc(-c2ccc(N3CCCCC3=O)nc2)c2cnn(-c3cc[nH]n3)c2n1 [Example 167]
45 | 10 to 100 | C[C@@H]1COCCN1c1cc(-c2ccc(N3CCCCC3=O)c(C#N)c2)c2cnn(-c3cc[nH]n3)c2n1 [Example 169]
46 | 10 to 100 | C[C@@H]1COCCN1c1cc(-c2ccc3c(c2)CCN3C(=O)c2ccncc2)c2cnn(-c3cc[nH]n3)c2n1 [Example 183]

same assay, conditions: SNU-601 human gastric cancer cells, 5 days; read-out: IC50 for inhibition of SNU-601 cell proliferation

Row | IC50 [nM] | SMILES
47 | 10 to 100 | C[C@@H]1COCCN1c1cc(C#CC2(C#N)CCCNC2)c2cnn(-c3cc[nH]n3)c2n1 (some centres unmarked) [Example 82]
